Consider two molecules from patent publication US12162811B2, “F-18 labeled chiral pure derivative of hydroxyfuran, preparation method and use thereof” (The First Affiliated Hospital of Sun Yat-sen University, priority 2022, dated 2024).

“Also recorded” adds a separate entry of the source.

The subject of one data set is HCT8 xenograft tumor. Description: micro-PET/CT imaging of tumor-bearing nude mice after intratumoral or tail vein injection. In kind it is in vivo, nude mouse. As to conditions: for SUVmax in the tumor: 5 min after injection; for SUVmax of the tumors: 1 h. The protocol: A nude mouse model with HCT8 xenograft tumor was established, and dynamic imaging was performed after intratumoral injection upon anesthesia of the tumor-bearing mice: 0.1 mL (about 100 μCi) of the solution prepared automatically with saline dilution with or without supersaturated sodium ascorbate was taken from a 1 mL syringe needle, and the solution was injected intratumorally into the nude mice model with an automatic syringe pump at 0.1 mL/min, and a dynamic 1-h microPET/CT imaging was performed. Delayed imaging was performed: statically imaged 2 h after injection.
Static micro-PET/CT imaging was performed 1 hour after tail vein injection in the anesthetized tumor-bearing mice.

The test system of a further data set is tumor lesions. As to the kind of experiment: whole-body dynamic PET/CT imaging of tumor patients. It is filed as in vivo, human. The protocol:
Six patients with different tumors fasted and urinated for at least 6 hours prior to receiving PET/CT scanning, approximately 5, 13, 30, 45 and 60 minutes after injection of (4R, 5R)[^18F]FAA (mean 448±113 MBq), the five consecutive whole-body dynamic PET/CT scanning was conducted for each participant using a uMI 780 scanner (United Imaging Healthcare) or Discovery MI scanner (GE Healthcore). The CT acquisition parameters of the uMI 780 scanner were 120 kV, smart 100-200 mAs, detector coverage of 40 mm, spacing of 0.9875, slice thickness of 1.0 mm, and rotation time of 0.5 s. The PET emission scan time was 1.5 min per bed with 6 beds covering the scanning area. Finally, the PET images were reconstructed by the regularized ordered subset expectation maximization algorithm (R-OSEM, UNITED IMAGING) with attenuation normalization using ACCT images. The CT acquisition parameters of the Discovery MI scanner were 120 kV, smart 120-180 mA, detector coverage of 40 mm, slice thickness of 0.625 mm, pitch to speed of 0.984:1, 39.37 and rotation time of 0.6 s. The PET emission scanning time was 1 min per bed with 6 to 8 beds covering the scanning area. Finally, the PET images were reconstructed by a Bayesian penalized likelihood (BPL) reconstruction algorithm (Q.clear, GE Healthcare) and attenuation nominalization was performed using ACCT images. Urine samples were collected after the last PET/CT scan and total radioactivity of the urine was assessed.

Data set [1] is described as follows: biodistribution in human body (ROI time-activity profiles of source organs). In kind it is in vivo. From the text: For the 6 sets of images obtained by Example 5, the ROI was depicted in the whole body images at the first time point and replicated to subsequent time point scans so as to determine the cumulative radioactivity in each source organ. The genital volume was manually adjusted if necessary. Major source organs include brain, thyroid, lung, heart wall, liver, gallbladder, stomach, adrenals, kidneys, pancreas, spleen, uterus (female only), testes (male only), and bone marrow. The biodistribution analysis included muscle and the absorbed dose analysis included bladder. Spinal ROIs were plotted as an alternative to the red bone marrow. Time-activity profiles were derived from each ROI, and cumulative radioactivity for each source organ was expressed as a percentage of the injected dose (% ID).

Data set [2] is described as follows: radiometrics: residence times and radiation absorbed dose (MIRD). In kind it is in vivo, human. The protocol: For the six sets of data obtained through Example 6, the residence times were calculated as the area under each time-activity curve by curve fitting with either a mono-or bi-exponential function model. The residence times of the bladder were generated by the integration of the time-activity curve from zero time to the last emission scan time plus the integration of the function from the last scan time to infinity (physical decay only). These residence times are then used for radiation absorbed dose calculations. The radiation absorbed dose was calculated for each subject using the Medical Internal Radiation Dose (MIRD) algorithm. The absorbed dose in the target area specified by MIRD was calculated according to the standardized Cristy Eckerman 70 kg adult male model, and the effective dose was assessed according to the tissue weighting factors in the publication of International Commission on Radiological Protection.

For data set [3] the following is noted: comparison PET tracer; cited from earlier work.
[4] abbreviates: intratumoral injection, with supersaturated sodium ascorbate.
The mark [5] stands for this setting: intratumoral injection, without supersaturated sodium ascorbate.

As to `O=C1O[C@H]([C@@H](O)C[18F])C(O)=C1O` [(4R, 5R)[^18F]FAA], the “effect of added supersaturated sodium ascorbate on metabolism of the tracer in the liver” value with HCT8 xenograft tumor (intratumoral injection, dynamic imaging) was “significantly inhibited”. Besides, the results for the “SUVmax in the tumor” value with HCT8 xenograft tumor (setting [4]) and with HCT8 xenograft tumor (setting [5]) were 165 % ID/g and 88 % ID/g, respectively. For the same molecule, the “SUVmax of the tumors” value was 45 % ID/g in the data set with HCT8 xenograft tumor (setting [4]), 34 % ID/g in the data set with HCT8 xenograft tumor (setting [5]) and 6.3 % ID/g in the data set on HCT8 xenograft tumor (tail vein injection). The “SUVmax of tumors, delayed imaging” value with HCT8 xenograft tumor (intratumoral injection, without supersaturated sodium ascorbate, 2 h after injection) is on record as 35 % ID/g. In addition, the uptake in tumors entry in the data set with HCT8 xenograft tumor (tumor-bearing mice) is given as “certain tumor uptake; also recorded: high uptake in tumors”; in the data set on tumor lesions (tumor patients), “high uptake in tumors”. The same molecule displayed a metastases detected in the data set with tumor lesions (6 patients) of 168. The molecule also displayed a primary lesions detected in the data set with tumor lesions (6 patients) of 2. In addition, the “mean SUVmax in all tumor lesions” value in the data set with tumor lesions (6 patients, all tumor lesions) is reported as 6.89±3.82. In addition, the “median SUVmax in all tumor lesions” value in the data set with tumor lesions (6 patients, all tumor lesions) came to 6.07. For the same molecule, the “range of SUVmax in all tumor lesions” value in the data set with tumor lesions (6 patients, all tumor lesions) was 1.62-22.85. Also, the tumor radioactivity uptake result in the data set on tumor lesions (kidney cancer and intestinal cancer patients) is on record as “average tumor radioactivity uptake”. For the same molecule, the “uptake in primary and metastatic tumor foci” value with tumor lesions (thyroid cancer and lung cancer) is given as “very high uptake”. In addition, the safety in humans entry in the data set on tumor lesions (tumor patients) is given as “safe for use in humans”. In data set [1] (1 h after injection), the “uptake in liver, adrenal glands, choroid plexus, pituitary gland and thyroid (exception of the kidney)” value is “high uptake”. In addition, in data set [1] (during the imaging phase), the “uptake in heart, muscle and brain” value is reported as “low”. Also, the “uptake in liver, adrenal glands, kidneys, choroid plexus, pituitary gland and thyroid” value in data set [1] (earliest imaging time point, most subjects) is recorded as “high uptake”. For the same molecule, in data set [1] (human), the route of excretion entry is “excreted mainly through the kidneys to the bladder”. The “uptake in spleen, intestine, salivary glands and bone marrow” value in data set [1] (slow clearance over time) was “moderate uptake”. Also, in data set [2] (ICRP tissue weighting factors), the “mean effective dose (ED)” value turned out to be 1.68±0.36E-02 mSv/MBq. Also, the absorbed dose amounted to 1.89±0.61E-02 mGy/MBq in data set [2] (adrenal gland); 4.88±1.21E-03 mGy/MBq in data set [2] (brain); 1.87±0.38E-02 mGy/MBq in data set [2] (kidney); 3.42±0.75E-02 mGy/MBq in data set [2] (liver); 2.95±1.70E-02 mGy/MBq in data set [2] (spleen). Also, the residence time in data set [2] (bladder wall) was 1.16±0.54E-03 hours; in data set [2] (kidney), 1.77±0.53 E-03 hours; in data set [2] (liver), 22.5±4.94 E-02 hours; in data set [2] (lung) it was 3.18±0.49 E-02 hours; in data set [2] (spleen) it was 2.19±1.59 E-02 hours; in data set [2] (thymus), 2.74±1.37E-05 h. Besides, the “mean systemic absorbed dose” value in data set [2] (whole body) is 6.54±1.58E-03 mSv/MBq.
Take [^18F]FDG: the “systemic absorbed effective dose” value in data set [3] is recorded as 1.90±0.36 E-02 mSv/MBq.
